PubChem BioAssay (NCI)
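96-well plates; 48 h exposure; 5 concentrations. Endpoints by linear interpolation between flanking doses. Not reached: highest tested concentration assigned. GI50 marks 50% less growth. At the TGI there is no net growth.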

Key:
Test in all cases: NCI-60 cell line screen, 48 h
786-0 renal = test system: 786-0 renal
A498 renal = test system: A498 renal
A549 NSCLC = test system: A549 NSCLC
ACHN renal = test system: ACHN renal
BT-549 breast = test system: BT-549 breast
CAKI-1 renal = test system: CAKI-1 renal
CCRF-CEM leukemia = test system: CCRF-CEM leukemia
COLO 205 colon = test system: COLO 205 colon
EKVX NSCLC = test system: EKVX NSCLC
HCT-15 colon = test system: HCT-15 colon
HL-60(TB) leukemia = test system: HL-60(TB) leukemia
HOP-62 NSCLC = test system: HOP-62 NSCLC
HOP-92 NSCLC = test system: HOP-92 NSCLC
HS 578T breast = test system: HS 578T breast
HT29 colon = test system: HT29 colon
IGROV1 ovarian = test system: IGROV1 ovarian
K-562 leukemia = test system: K-562 leukemia
LOX IMVI melanoma = test system: LOX IMVI melanoma
M14 melanoma = test system: M14 melanoma
MCF7 breast = test system: MCF7 breast
MDA-MB-231 breast = test system: MDA-MB-231 breast
NCI-H226 lung = test system: NCI-H226 lung
NCI-H23 lung = test system: NCI-H23 lung
NCI-H460 lung = test system: NCI-H460 lung
NCI-H522 lung = test system: NCI-H522 lung
NCI/ADR-RES ovarian = test system: NCI/ADR-RES ovarian
OVCAR-3 ovarian = test system: OVCAR-3 ovarian
OVCAR-4 ovarian = test system: OVCAR-4 ovarian
OVCAR-5 ovarian = test system: OVCAR-5 ovarian
OVCAR-8 ovarian = test system: OVCAR-8 ovarian
PC-3 prostate = test system: PC-3 prostate
RPMI-8226 leukemia = test system: RPMI-8226 leukemia
RXF 393 renal = test system: RXF 393 renal
SF-268 CNS = test system: SF-268 CNS
SF-295 CNS = test system: SF-295 CNS
SF-539 CNS = test system: SF-539 CNS
SK-MEL-2 melanoma = test system: SK-MEL-2 melanoma
SK-MEL-5 melanoma = test system: SK-MEL-5 melanoma
SK-OV-3 ovarian = test system: SK-OV-3 ovarian
SNB-19 CNS = test system: SNB-19 CNS
SNB-75 CNS = test system: SNB-75 CNS
SR leukemia = test system: SR leukemia
SW-620 colon = test system: SW-620 colon
T-47D breast = test system: T-47D breast
TK-10 renal = test system: TK-10 renal
U251 CNS = test system: U251 CNS
UACC-257 melanoma = test system: UACC-257 melanoma
UACC-62 melanoma = test system: UACC-62 melanoma

SMILES: C[C@@]12CC=C3c4nc(Nc5cccc(O)c5)sc4CC[C@]3(C)[C@H]1CC[C@]1(C)C(=O)CC[C@@H]21
- GI50 (786-0 renal): 1550 nM
- TGI (786-0 renal): 4.91 µM
- GI50 (A498 renal): 18 µM
- TGI (A498 renal): 75.8 µM
- GI50 (A549 NSCLC): 4.6 µM
- TGI (A549 NSCLC): > 100 µM
- GI50 (ACHN renal): 2270 nM
- TGI (ACHN renal): 5.45 µM
- GI50 (BT-549 breast): 1610 nM
- TGI (BT-549 breast): 6.47 µM
- GI50 (CAKI-1 renal): 1700 nM
- TGI (CAKI-1 renal): 3.28 µM
- GI50 (CCRF-CEM leukemia): 1830 nM
- TGI (CCRF-CEM leukemia): > 100 µM
- GI50 (COLO 205 colon): 2170 nM
- TGI (COLO 205 colon): 4.38 µM
- GI50 (EKVX NSCLC): 5.93 µM
- TGI (EKVX NSCLC): 83.3 µM
- GI50 (HCT-15 colon): 1380 nM
- TGI (HCT-15 colon): 3.33 µM
- GI50 (HL-60(TB) leukemia): 2350 nM
- TGI (HL-60(TB) leukemia): 6.48 µM
- GI50 (HOP-62 NSCLC): 2750 nM
- TGI (HOP-62 NSCLC): 8.12 µM
- GI50 (HOP-92 NSCLC): 1930 nM
- TGI (HOP-92 NSCLC): 5.32 µM
- GI50 (HS 578T breast): 2430 nM
- TGI (HS 578T breast): > 100 µM
- GI50 (HT29 colon): 1960 nM
- TGI (HT29 colon): 6.43 µM
- GI50 (IGROV1 ovarian): 2230 nM
- TGI (IGROV1 ovarian): 6.04 µM
- GI50 (K-562 leukemia): 2530 nM
- TGI (K-562 leukemia): > 100 µM
- GI50 (LOX IMVI melanoma): 1670 nM
- TGI (LOX IMVI melanoma): 3.15 µM
- GI50 (M14 melanoma): 2970 nM
- TGI (M14 melanoma): > 100 µM
- GI50 (MCF7 breast): 1850 nM
- TGI (MCF7 breast): 4.43 µM
- GI50 (MDA-MB-231 breast): 3000 nM
- TGI (MDA-MB-231 breast): 15 µM
- GI50 (NCI-H226 lung): 2860 nM
- TGI (NCI-H226 lung): 8.94 µM
- GI50 (NCI-H23 lung): 2740 nM
- TGI (NCI-H23 lung): 12.3 µM
- GI50 (NCI-H460 lung): 2660 nM
- TGI (NCI-H460 lung): 7.25 µM
- GI50 (NCI-H522 lung): 2140 nM
- TGI (NCI-H522 lung): 4.64 µM
- GI50 (NCI/ADR-RES ovarian): 3.1 µM
- TGI (NCI/ADR-RES ovarian): > 100 µM
- GI50 (OVCAR-3 ovarian): 1660 nM
- TGI (OVCAR-3 ovarian): 3.1 µM
- GI50 (OVCAR-4 ovarian): 2760 nM
- TGI (OVCAR-4 ovarian): > 100 µM
- GI50 (OVCAR-5 ovarian): 2580 nM
- TGI (OVCAR-5 ovarian): 7.26 µM
- GI50 (OVCAR-8 ovarian): 3.55 µM
- TGI (OVCAR-8 ovarian): 26 µM
- GI50 (PC-3 prostate): 1410 nM
- TGI (PC-3 prostate): 7.02 µM
- GI50 (RPMI-8226 leukemia): 669 nM
- TGI (RPMI-8226 leukemia): 4.52 µM
- GI50 (RXF 393 renal): 666 nM
- TGI (RXF 393 renal): 2350 nM
- GI50 (SF-268 CNS): 2100 nM
- TGI (SF-268 CNS): 7.12 µM
- GI50 (SF-295 CNS): 2490 nM
- TGI (SF-295 CNS): 7.92 µM
- GI50 (SF-539 CNS): 387 nM
- TGI (SF-539 CNS): 1520 nM
- GI50 (SK-MEL-2 melanoma): 2860 nM
- TGI (SK-MEL-2 melanoma): 9.99 µM
- GI50 (SK-MEL-5 melanoma): 5.7 µM
- TGI (SK-MEL-5 melanoma): > 100 µM
- GI50 (SK-OV-3 ovarian): 4.81 µM
- TGI (SK-OV-3 ovarian): 28 µM
- GI50 (SNB-19 CNS): 3.88 µM
- TGI (SNB-19 CNS): 55.7 µM
- GI50 (SNB-75 CNS): 3.19 µM
- TGI (SNB-75 CNS): > 100 µM
- GI50 (SR leukemia): 1870 nM
- TGI (SR leukemia): > 100 µM
- GI50 (SW-620 colon): 2130 nM
- TGI (SW-620 colon): 4.82 µM
- GI50 (T-47D breast): 2610 nM
- TGI (T-47D breast): 8.3 µM
- GI50 (TK-10 renal): 2180 nM
- TGI (TK-10 renal): 6.44 µM
- GI50 (U251 CNS): 2240 nM
- TGI (U251 CNS): 16.9 µM
- GI50 (UACC-257 melanoma): 3.69 µM
- TGI (UACC-257 melanoma): > 100 µM
- GI50 (UACC-62 melanoma): 2080 nM
- TGI (UACC-62 melanoma): 5.25 µM
